This is an account of results in patent US8304452B2, “Radical scavenger and active oxygen eliminating agent” (InBiotex Inc., priority 2005, dated 2012).

The test system of the test is human LDL. As to the kind of experiment: Lipid peroxide-suppressing action: CuSO4-induced LDL oxidation, TBARS assay (Example 1). It is filed as biochemical. To be noted: 0.2 mg/mL LDL + 5 μM CuSO4, 37° C., 3 hours, mean, n=2. The procedure:
As an action of capturing free group (free radical-scavenging action), the effect of N-β-alanyl-5-S-glutathionyl-3,4-dihydroxyphenylalanine (5-S-GAD) on LDL oxidation was examined. As controls, dopamine and Carnosine (under trade name; N-acetylcarnosine as the ingredient name) used as eye drops for cataract were used. LDL was prepared by a fractionation and centrifugation method. A fraction at a specific gravity of 1.019 to 1.063 g/mL in serum was defined as human LDL. 5 μM CuSO4, 5-S-GAD (3 to 100 μM) and N-acetyl-carnosine (100 μM to 10 mM) or L-carnosine (10 μM to 10 mM) were added to 0.2 mg/mL LDL, for incubation at 37° C. for 3 hours. After termination of the incubation, TBARS (a substance reactive with thiobarbituric acid) was assayed. Although the TBA reaction is a non-specific reaction, the reaction is used for a method of assaying various lipid peroxide products including malone dialdehyde. An experiment of peroxidation with copper sulfate was done twice (N=2). An aqueous solution containing 3.75 mg/mL thiobarbituric acid (TBA), 150 mg/mL trichloroacetic acid (TCA) and 0.25 N hydrochloric acid (HCl) was prepared as the TBA reagent, while tetramethoxypropane was used to prepare standard solutions (2, 5, 10, 20, 40 μM). 100 μL each of an LDL sample or a standard solution was added together with 200 μL of the TBA reagent into an Eppendorf tube (1.5 mL), which was then sealed with a cap for thorough mixing. After heating at 95° C. for 15 minutes, the resulting mixture was cooled in water and centrifuged at 3000 rpm for 5 minutes. The supernatant was assayed of the absorbance (535 nm). Based on the absorbance of the standard solutions, a standard curve was prepared. Based on the standard curve, the amount of TBARS in the LDL sample was calculated (in nmol/mg LDL protein) (mean, n=2, see Table 1 and FIG. 1).

Take `NCCc1ccc(O)c(O)c1` [dopamine, reference compound]: the “Amount of TBARS” value by setting is: (10 μM added) 58.853 nmol/mg LDL protein; (30 μM added) 4.454 nmol/mg LDL protein; (100 μM added) 4.208 nmol/mg LDL protein.
